Experimental findings from paper PMC6539903 (Molecules, 2019) are described below.

One data set relates to A549. Nature of the data set: MTT antiproliferation assay, A549. Format: cell-based. To be noted: Homo sapiens, 48 h, n = 3, read-out: IC50 ± SD A549. The method, then: (§1) MCF-7 (human breast cell line), HeLa (human cervical cell line), A549 (human lung cell line), HepG2 (human liver cell line), SW620 (human colorectal cell line) and a non-cancer cell line, NCM460 (Human colonic epithelial cells) were preserved at the State Key Laboratory of Pharmaceutical Biotechnology, Nanjing University (Nanjing, China).
(§2) The antiproliferative activity of the synthetic compounds against the SW620, MCF-7, HeLa, A549, HepG2, and NUM460 cell lines was evaluated by a colorimetric assay based on a modified standard (MTT). […] Thereafter, MTT (5 mg/mL in PBS) was added to each well and incubated for 4 h. 150 μL of DMSO was added to each well and shaken with a shaker. The absorbance (OD 570 nm) was read at 630 nm on an ELISA reader (ELx800, BioTek, montpelier, VT, USA). IC50 values for the compounds were calculated by comparison to DMSO treated control wells. Three replicate wells were used for each drug concentration. Each assay was performed three times.

Data set [1] in a line: MTT cytotoxicity assay, non-cancer colon cells. In kind it is cell-based. To be noted: human, NCM460 colonic epithelial cells (non-cancer cell line), n = 3, non-cancer cell line, read-out: CC50 ± SD NUM460. The method, then: Besides, the MTT assay was performed on a non-cancer line NCM460 to assess the cytotoxicity of the test compound to normal colon cells.
as §1, §2
Background: Tetrazolium assays rely on reduction of a dye to a coloured formazan, in cell work by metabolically active cells.

A further data set has as its system HeLa. Nature of the data set: MTT antiproliferation assay, HeLa. To be noted: Homo sapiens, 48 h, n = 3, read-out: IC50 ± SD HeLa. Format: cell-based. The method, then:
as §1, §2

The target of a further data set is T1, COX-1 (Homo sapiens, UniProt P23219).
T1 construct: purchased Cayman Chemical 701170
T1 sequence (P23219 24-599): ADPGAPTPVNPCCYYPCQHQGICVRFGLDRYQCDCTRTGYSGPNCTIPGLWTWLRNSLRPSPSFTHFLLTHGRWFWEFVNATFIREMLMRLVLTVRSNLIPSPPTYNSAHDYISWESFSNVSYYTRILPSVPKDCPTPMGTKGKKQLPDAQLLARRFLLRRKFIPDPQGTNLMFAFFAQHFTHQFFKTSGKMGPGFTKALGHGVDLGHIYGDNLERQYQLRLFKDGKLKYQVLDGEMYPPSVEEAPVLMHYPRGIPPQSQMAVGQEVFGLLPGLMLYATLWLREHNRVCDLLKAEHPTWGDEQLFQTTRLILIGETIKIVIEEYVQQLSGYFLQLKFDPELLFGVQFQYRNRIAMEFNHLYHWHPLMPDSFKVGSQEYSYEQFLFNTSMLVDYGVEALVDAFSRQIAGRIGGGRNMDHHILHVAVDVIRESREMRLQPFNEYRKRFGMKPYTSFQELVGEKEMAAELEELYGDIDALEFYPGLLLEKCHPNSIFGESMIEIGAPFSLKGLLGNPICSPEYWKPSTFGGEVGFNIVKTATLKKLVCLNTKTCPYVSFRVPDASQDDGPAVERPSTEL
Nature of the data set: COX-1 inhibition assay (COX-1 ELISA kit). The conditions noted are these: mean of four determinations; read-out: IC50 ± SD COX-1. In kind it is biochemical. As for the experimental part: (§3) 3-(4,5-Dimethylthiazol-2-yl)-2,5-diphenyltetrazolium (MTT) were purchased from Beyotime Institute of Biotechnology (Haimen, China). Annexcin V-FITC cell apoptosis assay kit (catalog No.BA11100) was purchased from BIO-BOX (Nanjing, China). Fibronectin (#F1056) and laminin (#L2020) were purchased from Sigma-Aldrich (St. Louis, MO, USA).
(§4) Then 1 M HCl was added to the reaction mixture to stop the reaction, and one-tenth of the volume of saturated stannous chloride (50 mg/mL) was added. The reaction mixture was incubated at room temperature for 5 min, and PGF2 and PGH2 were produced.
A general note: ELISA stands for enzyme-linked immunosorbent assay.

Another data set concerns SW620 cells. Nature of the data set: MTT antiproliferation assay, SW620. Format: cell-based. The conditions noted are these: Homo sapiens, SW-620, 48 h, n = 3, read-out: IC50 ± SD SW620. As for the experimental part:
as §1, §2

A further data set has as its system MCF-7. Nature of the data set: MTT antiproliferation assay, MCF-7. In kind it is cell-based. The conditions noted are these: Homo sapiens, MCF7, 48 h, n = 3, read-out: IC50 ± SD MCF-7. The method, then: as §1, §2
A further data set addresses T2, COX-2 (Homo sapiens, UniProt P35354).
T2 construct: purchased Cayman Chemical 701180
T2 sequence (P35354 18-604): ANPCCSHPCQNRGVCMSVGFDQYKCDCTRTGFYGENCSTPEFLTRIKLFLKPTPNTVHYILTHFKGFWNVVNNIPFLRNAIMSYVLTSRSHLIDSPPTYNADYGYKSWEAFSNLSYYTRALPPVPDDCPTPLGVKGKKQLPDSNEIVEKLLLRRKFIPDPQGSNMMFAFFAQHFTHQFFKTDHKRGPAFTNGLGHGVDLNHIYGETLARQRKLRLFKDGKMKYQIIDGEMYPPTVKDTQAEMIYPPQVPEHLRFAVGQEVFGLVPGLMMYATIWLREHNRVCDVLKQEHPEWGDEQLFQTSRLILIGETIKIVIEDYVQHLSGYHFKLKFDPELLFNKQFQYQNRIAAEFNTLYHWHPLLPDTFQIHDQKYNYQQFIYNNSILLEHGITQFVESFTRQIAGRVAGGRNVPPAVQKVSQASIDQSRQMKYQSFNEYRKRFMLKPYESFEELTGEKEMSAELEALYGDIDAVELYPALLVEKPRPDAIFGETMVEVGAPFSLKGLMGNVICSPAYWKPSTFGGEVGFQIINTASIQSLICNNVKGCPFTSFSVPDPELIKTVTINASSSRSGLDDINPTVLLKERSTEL
Nature of the data set: COX-2 inhibition assay (COX-2 ELISA kit). The conditions noted are these: for Selectivity Index (SI) (COX-1 IC50/COX-2 IC50): in vitro COX-2 selectivity index; for IC50: mean of four determinations, read-out: IC50 ± SD COX-2. In kind it is biochemical. The method, then: as §3, §4

Another data set concerns HepG2. The data set can be described thus: MTT antiproliferation assay, HepG2. In kind it is cell-based. To be noted: Homo sapiens, 48 h, n = 3, read-out: IC50 ± SD HepG2. As for the experimental part: as §1, §2

`Cc1ccc(C2=NN(c3ccc(S(N)(=O)=O)cc3)C(c3ccc4c(c3)OCO4)C2)cc1C` (centres unmarked) [Compound 4f, 4-(5-(Benzo[d][1,3]dioxol-5-yl)-3-(3,4-dimethylphenyl)-4,5-dihydro-1H-pyrazol-1-yl)benzenesulfonamide]: the melting point (as a rule, the temperature of the solid-liquid transition) lay in the range of 179 to 180 °C. In addition, the IC50 (in general, the concentration that inhibits the measured activity by half) in the data set on A549 stood at 5.49 ± 0.44 µM. The CC50 (commonly the concentration that lowers cell viability or growth by half) at 48 h in data set [1] was 129 ± 8.96 µM. In the data set with HeLa, the concentration for half-maximal inhibition (IC50) came out at 8.05 ± 0.77 µM. Further, the IC50 at COX-1 came to 58.14 ± 0.47 µM. In addition, the IC50 in the data set with SW620 cells stood at 4.34 ± 0.33 µM. In addition, the half-inhibitory concentration (IC50) in the data set with MCF-7 is 7.21 ± 0.62 µM. Moreover, on COX-2, the “Selectivity Index (SI) (COX-1 IC50/COX-2 IC50)” value is listed as 33.61 and the IC50 is 1.73 ± 0.11 µM. Further, the 50% inhibitory concentration (IC50) with HepG2 worked out at 11.2 ± 1.03 µM.
Compound `COc1cccc(C2=NN(c3ccc(S(N)(=O)=O)cc3)C(c3ccc4c(c3)OCCO4)C2)c1` (centres unmarked) [Compound 4u, 4-(5-(2,3-Dihydrobenzo[b][1,4]dioxin-6-yl)-3-(3-methoxyphenyl)-4,5-dihydro-1H-pyrazol-1-yl)benzenesulfonamide] registered a melting point of 146 to 147 °C. Moreover, the 50% inhibitory concentration (IC50) in the data set with A549 came to 7.81 ± 0.37 µM. In addition, the half-maximal cytotoxic concentration (CC50) at 48 h in data set [1] turned out to be 178 ± 10.7 µM. Besides, the IC50 in the data set with HeLa worked out at 12.2 ± 0.85 µM. The IC50 on COX-1 was greater than 60 µM. For the same compound, the IC50 with SW620 cells was 6.63 ± 0.42 µM. The concentration for half-maximal inhibition (IC50) in the data set on MCF-7 was 10.6 ± 0.67 µM. For the same compound, at COX-2, the “Selectivity Index (SI) (COX-1 IC50/COX-2 IC50)” value is listed as greater than 22.73 and the IC50 amounted to 2.64 ± 0.17 µM. Further, in the data set on HepG2, the half-inhibitory concentration (IC50) was 15.3 ± 1.09 µM.
For the compound `NS(=O)(=O)c1ccc(N2N=C(c3ccc(F)cc3)CC2c2ccc3c(c2)OCCO3)cc1` (centres unmarked) [Compound 4o, 4-(5-(2,3-Dihydrobenzo[b][1,4]dioxin-6-yl)-3-(4-fluorophenyl)-4,5-dihydro-1H-pyrazol-1-yl)benzenesulfonamide], the melting point lay within 195 to 196 °C. Further, the IC50 with A549 stood at 4.43 ± 0.33 µM. The cytotoxic concentration (CC50) at 48 h in [1] worked out at 107 ± 9.21 µM. Besides, the IC50 in the data set with HeLa worked out at 7.12 ± 0.69 µM. The concentration for half-maximal inhibition (IC50) on COX-1 came to 38.41 ± 0.34 µM. Further, the IC50 with SW620 cells was 3.83 ± 0.27 µM. Besides, in the data set with MCF-7, the concentration for half-maximal inhibition (IC50) was 6.44 ± 0.37 µM. Besides, on COX-2, the “Selectivity Index (SI) (COX-1 IC50/COX-2 IC50)” value was 25.10 and the 50% inhibitory concentration (IC50) was found to be 1.53 ± 0.12 µM. For the same compound, in the data set on HepG2, the half-inhibitory concentration (IC50) stood at 9.24 ± 0.74 µM.
`CCOc1ccc(C2=NN(c3ccc(S(N)(=O)=O)cc3)C(c3ccc4c(c3)OCCO4)C2)cc1` (centres unmarked) [Compound 4n, 4-(5-(2,3-Dihydrobenzo[b][1,4]dioxin-6-yl)-3-(4-ethoxyphenyl)-4,5-dihydro-1H-pyrazol-1-yl)benzenesulfonamide] returned a melting point of 193 to 194 °C. In addition, in the data set with A549, the IC50 is 6.81 ± 0.55 µM. Besides, the half-maximal cytotoxic concentration (CC50) at 48 h in [1] amounted to 157 ± 9.98 µM. Besides, in the data set with HeLa, the 50% inhibitory concentration (IC50) is 11.2 ± 0.86 µM. Further, the IC50 at COX-1 was greater than 60 µM. In the data set with SW620 cells, the half-maximal inhibitory concentration (IC50) came out at 6.12 ± 0.49 µM. Moreover, the concentration for half-maximal inhibition (IC50) in the data set on MCF-7 is 9.88 ± 0.86 µM. Further, at COX-2, the “Selectivity Index (SI) (COX-1 IC50/COX-2 IC50)” value was greater than 24.59 and the IC50 was 2.44 ± 0.19 µM. In addition, in the data set with HepG2, the IC50 was determined as 13.5 ± 0.59 µM.
`Cc1ccc(C2=NN(c3ccc(S(N)(=O)=O)cc3)C(c3ccc4c(c3)OCCO4)C2)cc1C` (centres unmarked) [Compound 4s, 4-(5-(2,3-Dihydrobenzo[b][1,4]dioxin-6-yl)-3-(3,4-dimethylphenyl)-4,5-dihydro-1H-pyrazol-1-yl)benzenesulfonamide] gave a melting point of 166 to 168 °C. Besides, the IC50 in the data set on A549 amounted to 5.86 ± 0.47 µM. For the same compound, the half-maximal cytotoxic concentration (CC50) at 48 h in data set [1] came out at 137 ± 3.98 µM. In addition, the 50% inhibitory concentration (IC50) with HeLa was found to be 8.41 ± 0.17 µM. Further, the IC50 at COX-1 is greater than 60 µM. For the same compound, the half-inhibitory concentration (IC50) in the data set on SW620 cells was determined as 4.54 ± 0.31 µM. Moreover, the IC50 in the data set on MCF-7 stood at 7.51 ± 0.47 µM. Besides, at COX-2, the “Selectivity Index (SI) (COX-1 IC50/COX-2 IC50)” value was greater than 33.33 and the IC50 is 1.8 ± 0.05 µM. Further, in the data set with HepG2, the IC50 was found to be 11.8 ± 0.59 µM.
